Measurements published in publication PMC3363478, “Pharmacokinetics of micafungin in patients with severe burn injuries” (Critical Care, 2012).
Numbered stars: 1 amine (or outer) side, 2 acyl side, 3 side chain; on linkers, the order of the positions; unused ones are H or OH. Bridge positions count the residues as written; N and C are the ends. Square brackets hold non-standard residues; d marks the D form. Peptide text beside a SMILES is read from it. * marks the point of attachment. hTyr(3S-OH,4S-OH,3'-OSO3H) = N[C@H](C(=O)O)[C@H](O)[C@@H](O)c1ccc(O)c(OS(=O)(=O)O)c1; Orn(4R-OH,5R-OH) = O=C([C@H](C[C@@H](O)[C@@H](O)N[*:3])N[*:1])[*:2]; Pro(3S-OH,4S-Me) = C[C@H]1CN[C@H](C(=O)O)[C@H]1O; X1 = CCCCCOc1ccc(-c2cc(-c3ccc(C(=O)*)cc3)no2)cc1; Gln(3R-OH) = NC(=O)C[C@@H](O)[C@H](N)C(=O)O; Hyp = O=C(O)[C@@H]1C[C@@H](O)CN1

Tests used:
[1] = cited from earlier work
Method: The plasma concentrations of MCFG per dose normalized with body weight (C/D) at P1, T1, P4, and T4 were 1.37 to 6.28, 0.51 to 1.38, 3.20 to 6.46, and 0.65 to 2.18 (μg/ml)/(mg/kg), respectively, indicating marked interindividual differences. […] The MCFG concentrations in the burn eschar of three patients at T1 and T4 were <0.1 to 3.98 and 1.10 to 14.81 μg/ml, respectively. Most of MCFG concentrations in the plasma and burn eschar were higher than the reported MIC90 of MCF ...

[2] = MCFG concentrations in the burn eschar of severe burn patients; type: in vivo, human; settings: patients with severe burn injuries; conclusion in words
Method: Eight severe burn patients within 14 days after injuries (M:F = 5:3, 19 to 85 years old, 35 to 85% total body surface area) were treated with MCFG (200 to 300 mg, 3.45 to 4.49 mg/kg) once daily by intravenous infusion over 1 hour. The MCFG concentrations in the plasma at the end of the initial administration of MCFG (P1), just before the second dosing (T1), at the end of the fourth dosing (P4), and just before the fifth dosing (T4) were determined, and were compared with the reported values in health volunteers. MCFG concentrations in the burn eschar at T1 and T4 were also measured.

CCCCCOc1ccc(-c2cc(-c3ccc(C(=O)N[C@H]4C[C@@H](O)[C@@H](O)NC(=O)[C@@H]5[C@@H](O)[C@@H](C)CN5C(=O)[C@H]([C@H](O)CC(N)=O)NC(=O)[C@H]([C@H](O)[C@@H](O)c5ccc(O)c(OS(=O)(=O)O)c5)NC(=O)[C@@H]5C[C@@H](O)CN5C(=O)[C@H]([C@@H](C)O)NC4=O)cc3)no2)cc1 [MCFG, Micafungin] (X1-[Orn(4R-OH,5R-OH)]T[Hyp][hTyr(3S-OH,4S-OH,3'-OSO3H)][Gln(3R-OH)][Pro(3S-OH,4S-Me)]; lactam 1-C)
plasma C/D at P1, reported value in healthy volunteers ([1]; P1 = end of the initial administration): 5.7 (μg/ml)/(mg/kg) | plasma C/D at T1, reported value in healthy volunteers ([1]; T1 = just before the second dosing): 1.3 (μg/ml)/(mg/kg) | plasma C/D at T4, reported value in healthy volunteers ([1]; T4 = just before the fifth dosing): 2.1 (μg/ml)/(mg/kg) | penetration into burn eschar [2]: capable of penetrating burn eschar
